Measurements: patent publication US7138376B2, “Methods and compositions for treating hepatitis C virus using 4'-modified nucleosides” (Idenix Pharmaceuticals, Inc., priority 2001, dated 2006)

What was measured:
HCV = details: cited from earlier work
MDBK = experiment: Cytotoxicity assay (CC50, sulforhodamine B staining); type: cell-based; details: MDBK cells; 4 days incubation; concentration reducing cell number by 50%; preliminary results
Experimental: The test compounds were dissolved in DMSO at an initial concentration of 200 μM and then were serially diluted in culture medium.
Cells are seeded at a rate of between 5×10^3 and 5×10^4/well into 96-well plates in growth medium overnight at 37° C. in a humidified CO2 (5%) atmosphere. New growth medium containing serial dilutions of the drugs is then added. After incubation for 4 days, cultures are fixed in 50% TCA and stained with sulforhodamineB. The optical density was read at 550 nm. The cytotoxic concentration was expressed as the concentration required to reduce the cell number by 50% (CC50).

HCV protease = details: SDS-PAGE and autoradiography assay; cited from earlier work

SMILES	CC50 (MDBK)	melting point	other results
NC(=O)c1ncn([C@@H]2O[C@H](CO)[C@@H](O)[C@H]2O)n1 [Ribavirin, 1-β-D-ribofuranosyl-1-1,2,4-triazole-3-carboxamide]	–	–	effect on serum levels of HCV-RNA (HCV; patients, sole treatment): does not lower serum levels of HCV-RNA; patients in whom serum amino transferase levels are reduced to normal (HCV; ribavirin alone): 40%
C[C@]1(CO)O[C@@H](n2cnc3c(=O)[nH]c(N)nc32)[C@H](O)[C@@H]1O [β-D-4′-CH3-riboG, 9-(4-C-methyl-β-D-ribofuranosyl) guanine]	> 250 µM	–	–
C[C@]1(CO)O[C@@H](n2ccc(N)nc2=O)[C@H](O)[C@@H]1O [β-D-4′-CH3-riboC, 1-(4-C-methyl-β-D-ribofuranosyl)cytosine]	> 250 µM	–	–
C[C@]1(CO)O[C@@H](n2cc(F)c(=O)[nH]c2=O)[C@H](O)[C@@H]1O [β-D-4′-CH3-ribo-5-fluoroU]	> 167 µM	–	–
CCCC(=O)c1cc2c(c(O)c1C)C(=O)C(=O)c1c(O)cccc1-2 [Sch 68631]	–	–	activity against HCV protease (HCV protease): micromolar activity
C[C@]1(CO)O[C@@H](n2cnc3c(N)ncnc32)[C@H](O)[C@@H]1O [β-D-4′-CH3-riboA, 9-(4-C-methyl-β-D-ribofuranosyl) adenine]	> 250 µM	96 to 97 °C (dec.)	–
C[C@]1(CO)O[C@@H](n2ccc(=S)[nH]c2=O)[C@H](O)[C@@H]1O [β-D-4′-CH3-ribo-4-thioU, 1-(4-C-methyl-β-D-ribofuranosyl)4-thio-uracil]	> 250 µM	65 to 70 °C (dec.)	–
Cc1cn([C@@H]2O[C@](C)(CO)[C@@H](O)[C@H]2O)c(=O)[nH]c1=O [β-D-4′-CH3-riboT, 1-(4-C-methyl-β-D-ribofuranosyl)thymine]	> 250 µM	258 to 260 °C (dec.)	–
